Measurements taken from US20260250278A1, “PHENYL-SUBSTITUTED DIHYDRONAPHTHYRIDINE COMPOUNDS, AND PREPARATION AND USE THEREOF” (SUZHONG PHARMACEUTICAL GROUP CO., LTD., priority 2022, published 2026).

Assays:
Format in all cases: in vivo
[1] = Pharmacokinetic test of mice (intravenous administration); settings: mouse, plasma; CD1 mice, intravenous 1 mg/kg
Experimental: This experiment was intended to evaluate a pharmacokinetic behavior of a compound after intravenous injection or intragastric administration in the mice. Intravenous injection administration: a test compound was prepared into 0.2 mg/mL clear solution, a solvent was 10% ethanol/40% polyethylene glycol 400/50% ultrapure water, and after administration, plasma was collected 0.083 hour, 0.25 hour, 0.5 hour, 1 hour, 2 hours, 4 hours, 8 hours, 24 hours and 48 hours later.
(§1) A concentration of the test compound in the plasma was determined by high-performance liquid chromatography-tandem mass spectrometry (LC-MS/MS). Retention time, chromatogram collection and chromatogram integration of compounds and internal standards were treated by software Analyst (Applied Biosystems), and data statistics was treated by software Analyst (Applied Biosystems).
(§2) A plasma concentration was treated by a non-atrioventricular model of Winnonlin™ Version 6.1 (Pharsight, Mountain View, CA) pharmacokinetic software, and pharmacokinetic parameters were calculated by a linear logarithmic trapezoid method.

[2] = Pharmacokinetic test of rats (intravenous and intragastric administration); settings: SD rats; for AUC(0-t) / Cmax / clearance / half-life: rat, plasma
Experimental: This experiment was intended to evaluate a pharmacokinetic behavior of an implementing compound after intravenous injection or intragastric administration in the rats. Intravenous injection administration: a test compound was prepared into 0.2 mg/mL clear solution, a solvent was 10% ethanol, 40% polyethylene glycol 400 and 50% water, and after administration, plasma was collected 0.083 hour, 0.25 hour, 0.5 hour, 1 hour, 2 hours, 4 hours, 8 hours and 24 hours later. Intragastric administration: a test compound was prepared into 1 mg/mL clear solution, a solvent was 10% ethanol/40% polyethylene glycol 400/50% water, and after administration, plasma was collected 0.25 hour, 0.5 hour, 1 hour, 2 hours, 4 hours, 8 hours and 24 hours later.
as §1, §2
Pharmacokinetic parameters of the compounds in the rats with an intravenous injection dose of 1 mg/kg and an intragastric and oral dose of 5 mg/kg were as shown in Table 20 below.

[3] = Tissue distribution, AUC ratio of heart to kidney; settings: compared with Finerenone
[4] = intragastric and oral administration 5 mg/kg

| SMILES | AUC(0-t) [1] [µg·h/mL] | F [2, 4] [%] | AUC(0-t) [2, 4] [µg·h/mL] | Cmax [2, 4] [ng/mL] | AUC(0-t) ([2]; intravenous 1 mg/kg) [µg·h/mL] | clearance ([2]; intravenous 1 mg/kg) [mL/min/kg] | half-life ([2]; intravenous 1 mg/kg) [h] | AUC (tissue distribution) ratio of heart to kidney [3] |
| --- | --- | --- | --- | --- | --- | --- | --- | --- |
| CCOc1ncc(C)c2c1[C@H](c1ccc(C#N)c3c1OCO3)C(C(N)=O)=C(C)N2 [Example 62, (S)-4-(7-cyanobenzo[d][1,3]dioxol-4-yl)-5-ethoxy-2,8-dimethyl-1,4-dihydro-1,6-naphthyridine-3-formamide] | 201 | 78.09 | 361 | 24000 | 106 | 0.13 | 10.1 |  |
| CCOc1ncc(C)c2c1[C@H](c1ccc(C#N)c3c1OCC3)C(C(N)=O)=C(C)N2 [Example 36, (S)-4-(4-cyano-2,3-dihydrobenzofuran-7-yl)-5-ethoxy-2,8-dimethyl-1,4-dihydro-1,6-naphthyridine-3-formamide] | 206 | 73.74 | 365 | 37000 | 94.1 | 0.14 | 12.1 | lower |
